Source: patent publication US10328069B2, “Phosphatidylinositol 3-kinase inhibitors for the treatment of lymphoproliferative malignancies” (Exelixis, Inc., priority 2011, dated 2019)
Marks after values point to notes of the source that are not given here.

Columns and labels:
[1] = molecular target: class I PI3K isoform β (Homo sapiens, UniProt P42338); conditions: read-out: IC50 PI3K β
[2] = Phase 1 study in solid tumors: maximum tolerated dose and dose-limiting toxicities; assay type: in vivo
Protocol: (§1) The maximum tolerated dose (MTD) was defined as 600 mg (capsule) once daily (QD) on either a 21/7 (administered continuously for 21 days followed by 7 days rest) or a continuous daily dosing schedule. […] A dose-escalation study of a tablet formulation is ongoing. Ten additional patients have been enrolled in the expansion cohort to better define the activity of Compound A, and further studies are warranted.

[3] = molecular target: class I PI3K isoform δ (Homo sapiens, UniProt O00329); conditions: read-out: IC50 PI3K δ
[4] = tested on: downstream effectors of PI3K; assay: Preclinical xenograft model studies: phosphorylation of downstream effectors of PI3K; assay type: in vivo; conditions: preclinical xenograft models, well-tolerated doses
[5] = tested on: relapsed/refractory lymphoma and CLL; assay: Phase 1 trial, lymphoma/CLL expansion cohort: best response; assay type: in vivo, human
Protocol: As part of a phase 1 single agent study in solid tumors, we administered Compound A to a dedicated expansion cohort of patients with relapsed/refractory lymphoma and CLL. The drug was administered orally daily, with continuous dosing in monthly cycles. A total of 15 patients were enrolled at three centers. An initial cohort of 3 patients was enrolled, followed by a safety review, with subsequent enrollment of the remaining 12 subjects. The median age of the patients was 66 years (range 28-81), 40% were male and 60% female.
This was a Phase 1, open-label, non-randomized trial of Compound A given orally as a single agent in subjects with lymphoma.
The key eligibility include the following: • Histologically confirmed diagnosis of relapsed or refractory lymphoma • Measureable disease • Adequate bone marrow function defined as: • ANC≥1000/mm^3 (CLL with ALC≥100,000/mm^3 required to have ANC≥500/mm^3) • Platelets≥30,000/mm^3 • Hemoglobin≥8 g/dL • Archival or fresh tumor tissue • No prior therapy with a selective PI3K inhibitor • Written informed consent. Results

[6] = Phase 1 trial, lymphoma/CLL expansion cohort: safety and tolerability; assay type: in vivo, human
[7] = molecular target: class I PI3K isoform γ (Homo sapiens, UniProt P48736); conditions: read-out: IC50 PI3K γ
[8] = tested on: downstream targets of PI3K, including pAKT and pEBP1; assay: Phosphorylation of downstream targets of PI3K in vitro and in vivo
[9] = tested on: PI3K pathway; assay: Phase 1 study in patients with solid tumors: pharmacodynamics in surrogate and tumor tissue; assay type: in vivo, human
Protocol: as §1

[10] = molecular target: mTOR (Homo sapiens, UniProt P42345); conditions: read-out: IC50 mTOR
[11] = tested on: xenograft tumor; assay: Preclinical xenograft model studies: tumor growth; assay type: in vivo; conditions: preclinical xenograft models, well-tolerated doses
[12] = Phase 1 trial, lymphoma/CLL expansion cohort: plasma pharmacokinetics; assay type: in vivo, human; conditions: 600 mg oral daily, cycle 1, eight patients
Description: The secondary objectives were to determine (a) the plasma pharmacokinetics of Compound A; and (b) the pharmacodynamic effects of Compound A on tumor tissue.
There was inter-patient variability, and the geometric mean was 7.6 fold.

[13] = Hodgkin Lymphoma, n = 2 evaluated
[14] = nineteen subjects, 600 mg capsule daily
[15] = nineteen subjects, unrelated to study drug

class I PI3K isoform δ, sequence (O00329 whole entry, canonical isoform): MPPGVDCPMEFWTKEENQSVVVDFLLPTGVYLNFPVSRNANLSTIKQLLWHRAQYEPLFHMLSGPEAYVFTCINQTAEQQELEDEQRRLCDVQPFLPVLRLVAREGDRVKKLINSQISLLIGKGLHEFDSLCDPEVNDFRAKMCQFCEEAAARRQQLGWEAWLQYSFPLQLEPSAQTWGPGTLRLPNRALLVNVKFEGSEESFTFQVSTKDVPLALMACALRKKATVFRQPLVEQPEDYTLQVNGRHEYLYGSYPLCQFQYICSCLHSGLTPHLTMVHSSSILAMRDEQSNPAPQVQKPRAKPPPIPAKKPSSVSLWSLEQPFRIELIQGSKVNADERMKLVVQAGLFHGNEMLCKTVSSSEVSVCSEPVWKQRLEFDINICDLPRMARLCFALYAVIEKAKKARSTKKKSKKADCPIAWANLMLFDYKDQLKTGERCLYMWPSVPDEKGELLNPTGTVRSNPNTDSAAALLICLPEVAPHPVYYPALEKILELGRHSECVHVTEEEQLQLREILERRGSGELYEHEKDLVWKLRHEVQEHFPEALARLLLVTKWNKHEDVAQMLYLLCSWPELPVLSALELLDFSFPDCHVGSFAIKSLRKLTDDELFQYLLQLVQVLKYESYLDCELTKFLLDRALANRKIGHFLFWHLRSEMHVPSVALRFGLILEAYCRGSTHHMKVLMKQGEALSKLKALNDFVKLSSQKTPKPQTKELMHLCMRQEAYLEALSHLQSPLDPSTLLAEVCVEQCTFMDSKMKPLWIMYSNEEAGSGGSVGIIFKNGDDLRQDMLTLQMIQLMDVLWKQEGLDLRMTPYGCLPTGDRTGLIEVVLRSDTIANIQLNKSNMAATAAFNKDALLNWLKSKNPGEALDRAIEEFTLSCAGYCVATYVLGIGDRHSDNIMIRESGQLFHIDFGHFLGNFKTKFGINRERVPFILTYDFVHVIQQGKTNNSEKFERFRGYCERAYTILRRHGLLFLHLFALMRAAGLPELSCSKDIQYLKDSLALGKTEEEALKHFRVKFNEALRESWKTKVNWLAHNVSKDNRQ
class I PI3K isoform δ, sequence (P27986 whole entry partner, canonical isoform): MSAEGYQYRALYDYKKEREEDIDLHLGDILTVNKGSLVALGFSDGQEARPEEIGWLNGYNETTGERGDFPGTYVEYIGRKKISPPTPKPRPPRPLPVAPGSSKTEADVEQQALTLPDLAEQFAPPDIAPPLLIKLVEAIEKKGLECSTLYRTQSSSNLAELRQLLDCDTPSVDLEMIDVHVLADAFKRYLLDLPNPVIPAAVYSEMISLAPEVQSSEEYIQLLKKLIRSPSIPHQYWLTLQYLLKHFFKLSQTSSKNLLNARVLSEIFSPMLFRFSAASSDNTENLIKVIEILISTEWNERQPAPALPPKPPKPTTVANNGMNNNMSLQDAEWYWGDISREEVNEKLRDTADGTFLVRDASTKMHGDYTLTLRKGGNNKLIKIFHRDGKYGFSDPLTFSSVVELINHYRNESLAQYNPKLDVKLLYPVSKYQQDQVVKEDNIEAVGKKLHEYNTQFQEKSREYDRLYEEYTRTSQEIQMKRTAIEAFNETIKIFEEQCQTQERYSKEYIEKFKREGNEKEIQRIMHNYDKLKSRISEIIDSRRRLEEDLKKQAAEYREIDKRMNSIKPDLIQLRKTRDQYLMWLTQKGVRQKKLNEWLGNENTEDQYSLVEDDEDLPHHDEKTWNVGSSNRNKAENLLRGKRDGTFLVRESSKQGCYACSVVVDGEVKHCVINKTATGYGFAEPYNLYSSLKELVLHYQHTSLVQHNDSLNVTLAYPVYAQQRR
class I PI3K isoform γ, sequence (P48736 whole entry, canonical isoform): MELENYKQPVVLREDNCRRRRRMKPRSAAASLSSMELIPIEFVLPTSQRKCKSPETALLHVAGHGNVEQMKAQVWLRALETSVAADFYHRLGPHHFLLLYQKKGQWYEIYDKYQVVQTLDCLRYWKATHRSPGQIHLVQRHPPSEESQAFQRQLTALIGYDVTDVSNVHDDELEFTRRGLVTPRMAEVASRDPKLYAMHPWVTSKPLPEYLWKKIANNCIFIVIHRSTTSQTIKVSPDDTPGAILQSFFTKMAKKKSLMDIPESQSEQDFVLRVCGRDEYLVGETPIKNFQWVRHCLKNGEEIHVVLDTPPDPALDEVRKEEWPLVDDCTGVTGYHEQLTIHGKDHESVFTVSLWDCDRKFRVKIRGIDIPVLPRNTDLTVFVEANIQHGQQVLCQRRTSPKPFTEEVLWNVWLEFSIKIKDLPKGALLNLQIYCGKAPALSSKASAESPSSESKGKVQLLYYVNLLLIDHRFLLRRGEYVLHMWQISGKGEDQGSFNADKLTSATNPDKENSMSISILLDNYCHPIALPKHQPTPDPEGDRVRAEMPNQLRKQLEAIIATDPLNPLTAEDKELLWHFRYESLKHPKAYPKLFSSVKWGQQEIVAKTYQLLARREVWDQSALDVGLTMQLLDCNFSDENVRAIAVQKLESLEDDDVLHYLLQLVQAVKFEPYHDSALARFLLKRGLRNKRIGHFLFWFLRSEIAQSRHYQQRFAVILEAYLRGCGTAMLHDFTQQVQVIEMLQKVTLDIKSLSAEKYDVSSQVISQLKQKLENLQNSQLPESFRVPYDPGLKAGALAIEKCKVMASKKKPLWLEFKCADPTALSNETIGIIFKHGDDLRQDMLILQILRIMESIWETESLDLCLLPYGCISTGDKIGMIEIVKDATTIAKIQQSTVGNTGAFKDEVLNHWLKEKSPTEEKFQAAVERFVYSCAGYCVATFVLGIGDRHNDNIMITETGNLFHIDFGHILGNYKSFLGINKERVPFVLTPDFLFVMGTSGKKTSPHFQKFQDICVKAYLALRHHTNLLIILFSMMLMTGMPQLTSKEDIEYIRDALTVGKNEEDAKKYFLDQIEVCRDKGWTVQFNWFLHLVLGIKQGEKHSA
class I PI3K isoform β, sequence (P42338 whole entry, canonical isoform): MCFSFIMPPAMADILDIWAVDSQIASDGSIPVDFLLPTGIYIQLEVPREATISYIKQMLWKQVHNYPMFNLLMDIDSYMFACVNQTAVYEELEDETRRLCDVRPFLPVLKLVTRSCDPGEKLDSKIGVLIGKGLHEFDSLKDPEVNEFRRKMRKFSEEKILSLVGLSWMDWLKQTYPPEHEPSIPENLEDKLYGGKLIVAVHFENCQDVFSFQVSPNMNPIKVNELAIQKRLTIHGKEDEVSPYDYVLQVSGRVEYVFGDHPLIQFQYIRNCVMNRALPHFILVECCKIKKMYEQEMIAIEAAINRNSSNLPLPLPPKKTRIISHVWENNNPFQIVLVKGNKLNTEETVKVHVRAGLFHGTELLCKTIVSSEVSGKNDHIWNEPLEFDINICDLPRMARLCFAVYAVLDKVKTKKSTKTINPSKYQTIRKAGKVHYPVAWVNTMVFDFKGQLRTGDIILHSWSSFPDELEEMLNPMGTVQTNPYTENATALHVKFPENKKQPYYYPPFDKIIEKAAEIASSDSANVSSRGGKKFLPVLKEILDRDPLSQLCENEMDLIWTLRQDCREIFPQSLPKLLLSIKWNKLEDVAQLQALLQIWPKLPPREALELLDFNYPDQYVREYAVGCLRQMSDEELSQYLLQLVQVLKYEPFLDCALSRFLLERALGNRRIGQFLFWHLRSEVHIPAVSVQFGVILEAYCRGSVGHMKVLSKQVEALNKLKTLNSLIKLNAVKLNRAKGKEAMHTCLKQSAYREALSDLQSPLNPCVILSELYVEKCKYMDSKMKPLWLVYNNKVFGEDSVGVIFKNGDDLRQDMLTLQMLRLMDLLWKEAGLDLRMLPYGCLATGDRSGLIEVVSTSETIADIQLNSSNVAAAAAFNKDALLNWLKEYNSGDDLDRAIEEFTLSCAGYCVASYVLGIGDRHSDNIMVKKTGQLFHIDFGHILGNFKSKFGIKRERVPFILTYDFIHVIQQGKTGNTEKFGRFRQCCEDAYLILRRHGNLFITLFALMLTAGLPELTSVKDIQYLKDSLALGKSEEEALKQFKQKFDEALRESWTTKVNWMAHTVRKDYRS
class I PI3K isoform β, sequence (P27986 whole entry partner, canonical isoform): as the sequence (P27986 whole entry partner, canonical isoform) above

For `COc1ccc(Cl)c(Nc2nc3ccccc3nc2NS(=O)(=O)c2cccc(NC(=O)C(C)(C)N)c2)c1` [Compound A, N-(3-{[(3-{[2-chloro-5-(methoxy)phenyl]amino}quinoxalin-2-yl)amino]sulfonyl}phenyl)-2-methylalaninamide], the IC50 [1] was 383 nM, the “maximum tolerated dose (MTD)” value ([2]; capsule, once daily (QD), 21/7 or continuous daily dosing schedule) was 600 mg and the dose-limiting toxicities ([2]; human, in vivo) was “Grade 3 rash and Grade 3 hypersensitivity”. For the same molecule, the IC50 [3] was 23 nM, the “phosphorylation of downstream effectors of PI3K” value [4] was “inhibited phosphorylation of downstream effectors of PI3K” and the “best response Stable Disease, number of patients” value (“best response Stable Disease” below) ([5]; CLL/SLL, n = 5 evaluated, 600 mg capsule once daily, after cycle 2) was 5^b. For the same molecule, the “best response Stable Disease” value ([5]; Follicular Lymphoma, n = 2 evaluated, 600 mg capsule once daily) was 2^, the “best response Progressive Disease, number of patients” value [5, 13] was 1 and the “best response Stable Disease” value [5, 13] was 1^e. The “best response Stable Disease” value ([5]; Transformed Lymphoma, n = 1 evaluated) was 1^d, the “best response Complete Response, number of patients” value ([5]; Waldenstrom's Macroglobulinemia, n = 1 evaluated, complete response at cycle 14) was 1^c and the activity in patients ([5]; in vivo) was “active in CLL and low-grade lymphomas”. The “grade 3-4 thrombocytopenia” value ([6]; 1/15 patients, oral daily continuous dosing) was 6.7%, the “hyperglycemia, grade 1-2 event” value ([6]; 1 of 15 patients) was 6.7% and the “hyperglycemia, grade 3-4 event” value ([6]; 1 of 15 patients) was 6.7%. For the same molecule, the “grade 3-4 neutropenia” value ([6]; 4/15 patients, oral daily continuous dosing) was 26.7%, the “tolerability in patients with lymphoma and CLL” value ([6]; in vivo) was “well-tolerated” and the “Patients requiring dose modification due to toxicity: Hyperglycemia” value ([6]; nineteen subjects) was 1 (5) n (%). The “Patients requiring dose modification due to toxicity: Neutropenia” value ([6]; nineteen subjects) was 2 (11) n (%), the “Patients requiring dose modification due to toxicity: Rash” value ([6]; nineteen subjects) was 1 (5) n (%) and the “Abdominal Pain, All Adverse Events, All Grades” value [6, 14] was 4 (21) n (%). The “Abdominal Pain, All Adverse Events, Grade ≥3” value [6, 14] was 1 (5) n (%), the “Abdominal Pain, Related Adverse Events, All Grades” value [6, 14] was 2 (11) n (%) and the “Abdominal Pain, Related Adverse Events, Grade ≥3” value [6, 14] was 0 n (%). The “Anemia, All Adverse Events, All Grades” value [6, 14] was 4 (21) n (%), the “Anemia, All Adverse Events, Grade ≥3” value [6, 14] was 3 (16) n (%) and the “Anemia, Related Adverse Events, All Grades” value [6, 14] was 1 (5) n (%). The “Anemia, Related Adverse Events, Grade ≥3” value [6, 14] was 0 n (%), the “Cough, All Adverse Events, All Grades” value [6, 14] was 6 (32) n (%) and the “Cough, All Adverse Events, Grade ≥3” value [6, 14] was 1 (5) n (%). For the same molecule, the “Cough, Related Adverse Events, All Grades” value [6, 14] was 0 n (%), the “Cough, Related Adverse Events, Grade ≥3” value [6, 14] was 0 n (%) and the “Diarrhea, All Adverse Events, All Grades” value [6, 14] was 12 (63) n (%). For the same molecule, the “Diarrhea, All Adverse Events, Grade ≥3” value [6, 14] was 1 (5) n (%), the “Diarrhea, Related Adverse Events, All Grades” value [6, 14] was 7 (37) n (%) and the “Diarrhea, Related Adverse Events, Grade ≥3” value [6, 14] was 1 (5) n (%). For the same molecule, the “Dyspnea, All Adverse Events, All Grades” value [6, 14] was 4 (21) n (%), the “Dyspnea, All Adverse Events, Grade ≥3” value [6, 14] was 1 (5) n (%) and the “Dyspnea, Related Adverse Events, All Grades” value [6, 14] was 0 n (%). For the same molecule, the “Dyspnea, Related Adverse Events, Grade ≥3” value [6, 14] was 0 n (%), the “Fatigue, All Adverse Events, All Grades” value [6, 14] was 5 (26) n (%) and the “Fatigue, All Adverse Events, Grade ≥3” value [6, 14] was 0 n (%). For the same molecule, the “Fatigue, Related Adverse Events, All Grades” value [6, 14] was 0 n (%), the “Fatigue, Related Adverse Events, Grade ≥3” value [6, 14] was 0 n (%) and the “Hyperglycemia, All Adverse Events, All Grades” value [6, 14] was 4 (21) n (%). For the same molecule, the “Hyperglycemia, All Adverse Events, Grade ≥3” value [6, 14] was 1 (5) n (%), the “Hyperglycemia, Related Adverse Events, All Grades” value [6, 14] was 4 (21) n (%) and the “Hyperglycemia, Related Adverse Events, Grade ≥3” value [6, 14] was 1 (5) n (%). The “Neutropenia, All Adverse Events, All Grades” value [6, 14] was 5 (26) n (%), the “Neutropenia, All Adverse Events, Grade ≥3” value [6, 14] was 5 (26) n (%) and the “Neutropenia, Related Adverse Events, All Grades” value [6, 14] was 4 (21) n (%). The “Neutropenia, Related Adverse Events, Grade ≥3” value [6, 14] was 4 (21) n (%), the “Pruritus, All Adverse Events, All Grades” value [6, 14] was 4 (21) n (%) and the “Pruritus, All Adverse Events, Grade ≥3” value [6, 14] was 1 (5) n (%). The “Pruritus, Related Adverse Events, All Grades” value [6, 14] was 2 (11) n (%), the “Pruritus, Related Adverse Events, Grade ≥3” value [6, 14] was 0 n (%) and the “Pyrexia, All Adverse Events, All Grades” value [6, 14] was 5 (26) n (%). For the same molecule, the “Pyrexia, All Adverse Events, Grade ≥3” value [6, 14] was 1 (5) n (%), the “Pyrexia, Related Adverse Events, All Grades” value [6, 14] was 1 (5) n (%) and the “Pyrexia, Related Adverse Events, Grade ≥3” value [6, 14] was 0 n (%). The “Rash, All Adverse Events, All Grades” value [6, 14] was 4 (21) n (%), the “Rash, All Adverse Events, Grade ≥3” value [6, 14] was 1 (5) n (%) and the “Rash, Related Adverse Events, All Grades” value [6, 14] was 3 (16) n (%). For the same molecule, the “Rash, Related Adverse Events, Grade ≥3” value [6, 14] was 1 (5) n (%), the “Patients requiring dose modification due to toxicity” value ([6]; nineteen subjects, total) was 7 (37) n (%) and the “Patients requiring dose modification due to toxicity: More than 1 event in the same patient” value ([6]; nineteen subjects, diarrhea, fever/pneumonia, fever/pneumonia/sepsis/ileus/fluid overload) was 1 (5) n (%). For the same molecule, the “Patients requiring dose modification due to toxicity: Fever/hypotension” value [6, 15] was 1 (5) n (%), the “Patients requiring dose modification due to toxicity: Respiratory infection” value [6, 15] was 1 (5) n (%) and the IC50 [7] was 36 nM. The “phosphorylation of downstream targets of PI3K, including pAKT and pEBP1” value [8] was “inhibits phosphorylation”, the effect as monotherapy ([9]; human, in vivo) was “primarily anti-proliferative, not pro-apoptotic” and the “PI3K pathway activation in surrogate tissue (PBMC, hair follicle, skin) and tumor tissue” value ([9]; once daily, patients with solid tumors) was “inhibited PI3K pathway activation”. For the same molecule, the “PI3K and ERK pathway inhibition” value ([9]; well-tolerated doses) was “robust PI3K and ERK pathway inhibition”, the IC50 [10] was over 15000 nM and the tumor growth [11] was “inhibited tumor growth”. For the same molecule, the “geometric mean accumulation (AUC) on day 28” value [12] was 7.6 fold and the “mean (CV %) accumulation (AUC) on day 28” value ([12]; CV 88.1%) was “approximately 11.2 fold”.
